These results are taken from US8815875B2 (Merck Sharp & Dohme Corp., priority 2008, dated 2014).

Each structure is given as a SMILES string.

This assay deals with FABP4 (Homo sapiens, UniProt P15090). Description: TdF (Temperature Dependence Fluorescence) assay, thermal shift, FABP4. The format is binding. The text has this:
TdF (Temperature Dependence Fluorescence) Assay for FABP3 and FABP4
The TdF assay was mainly conducted in the 96-well based CHROMO-4 real time fluorescence plate reader (BioRad). The Sypro Orange (Sigma-Aldrich), environmentally sensitive fluorescence dye, was used to monitor the protein folding-unfolding transition. Protein-ligand binding was gauged by the change (or shift) in the unfolding transition temperature (ΔTm) acquired at protein alone with respect to protein in the presence of ligand of interest.
The compound of interest was first prepared in DMSO stock (typical concentration: 10 mM). […] Final percentage of DMSO resided in the sample was 2%. The sample plate was heated from 30° C. to 90° C. with thermal ramping rate of 1° C./min. The fluorescence signals were acquired with excitation and emission wavelengths centered at 490 and 560 nm respectively. The instrument thermal stability was ±0.2° C.
Theoretical basis for TdF-based ligand binding affinity constant
In brief, the binding constant of the ligand at the Tm is expressed as below:
[formula] where To is the midpoint of unfolding for unliganded protein and Tm is the midpoint of unfolding in presence of ligand. [LTm] is free ligand at Tm. The ΔHu and ΔCpu are the enthalpy of unfolding and heat capacity change of unfolding for the protein respectively.
The nonlinear regression fitting in general readily reaches convergence by properly constraining the initial values for the fitting parameters (e.g. the initial “guess” for the ΔHu was constrained to 120 kcal/mol; initial Yn and mn were set to 1 and zero to best represent the melting curve along the low temperature region; negative slope of −0.5 was initially chosen for mu; initial Tm was also constrained to 50° C.).
[formula] (see Brandts et al and Mayhood et al, shown above) where ΔHL (T) is the van't Hoff enthalpy of ligand binding at temperature T and ΔCpL is the heat capacity upon ligand binding. For simplicity, the ΔCpL and ΔHL (T) were set to zero and −7 kcal/mol respectively. […] TdCD (Temperature-dependent Circular Dichroism) Assay for FABP3/4/5

FABP4, sequence (P15090 whole entry, species assumed): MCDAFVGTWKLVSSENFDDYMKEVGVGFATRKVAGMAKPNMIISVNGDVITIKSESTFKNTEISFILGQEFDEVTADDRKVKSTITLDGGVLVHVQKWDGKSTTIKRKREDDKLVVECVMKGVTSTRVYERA

On to `COCc1c(Cl)cccc1OCc1cc(=O)n2nc(-c3ccccc3)nc2[nH]1` [22-2], for which the “FABP4 TdF Kd” value is reported as “B (0.5 ≦ B < 0.001 μM)”. As for `CN1CCc2c(cccc2OCc2cc(=O)n3nc(-c4ccccc4)nc3[nH]2)C1` [1-98], the equilibrium dissociation constant (Kd) is > 500 nM.

Turning to `O=c1cc(CO[C@H]2C[C@H]3CC[C@@H]2C3)[nH]c2nc(-c3ccccc3)nn12` [1-108], the “FABP4 TdF Kd” value is “B (0.5 ≦ B < 0.001 μM)”.

With `O=c1cc(COc2cccnc2)[nH]c2nc(-c3ccccc3)nn12` [1-19], the equilibrium dissociation constant (Kd) was > 500 nM.

Consider `O=c1c(Cl)c(COCC2(c3cccc(C(F)(F)F)c3)CC2)[nH]c2nc(-c3ccccc3)nn12` [24-7], for which the “FABP4 TdF Kd” value is recorded as “B (0.5 ≦ B < 0.001 μM)”. On to `O=c1cc(COc2cccc3cnccc23)[nH]c2nc(-c3ccccc3)nn12` [1-75], for which the Kd was > 500 nM. For `O=c1cc(COc2cccc(Cl)c2Cl)[nH]c2nc(-c3ccccc3)nn12` [1-67], the “FABP4 TdF Kd” value is “B (0.5 ≦ B < 0.001 μM)”. Turning to `CC1(C)CCC(=O)N(Cc2cc(=O)n3nc(-c4ccccc4)nc3[nH]2)C1` [1-95], the Kd is > 500 nM. As to `CC1(C(=O)Nc2c(Cl)cccc2OCc2cc(=O)n3nc(-c4ccccc4)nc3[nH]2)CC1` [49-5], the “FABP4 TdF Kd” value is recorded as “B (0.5 ≦ B < 0.001 μM)”.

As for `Cc1ccc(OCc2cc(=O)n3nc(-c4ccccc4)nc3[nH]2)cc1C` [1-63], the “FABP4 TdF Kd” value is “B (0.5 ≦ B < 0.001 μM)”. For the molecule `CNc1cccc(N(C)Cc2cc(=O)n3nc(-c4ccccc4)nc3[nH]2)c1C1CC1` [19-2], the “FABP4 TdF Kd” value was “B (0.5 ≦ B < 0.001 μM)”.

For `Cc1c(Cl)cccc1OC(C)c1cc(=O)n2nc(-c3ccccc3)nc2[nH]1` (single isomer, unassigned) [37-7], the “FABP4 TdF Kd” value was “B (0.5 ≦ B < 0.001 μM)”. In the case of `O=C(N1CCC[C@@H]1CO)C1(OCc2cc(=O)n3nc(-c4ccccc4)nc3[nH]2)CCCCC1` [48-66], the Kd was > 500 nM. Still for that read-out and setting: as for `O=C(NC1(c2cccc(Cl)c2)CC1)C1(OCc2cc(=O)n3nc(-c4ccccc4)nc3[nH]2)CCCCC1` [48-9, N-(1-(3-chlorophenyl)cyclopropyl)-1-((7-oxo-2-phenyl-4,7-dihydro-[1,2,4]triazolo[1,5-a]pyrimidin-5-yl)methoxy)cyclohexanecarboxamide], the figure is ≤ 1 nM. In the case of `COCC1(CNC(=O)C2(OCc3cc(=O)n4nc(-c5ccccc5)nc4[nH]3)CCCCC2)CC1` [48-55], the “FABP4 TdF Kd” value is “B (0.5 ≦ B < 0.001 μM)”. For the molecule `O=c1cc(CO[C@@H]2C[C@H]3CC[C@@H]2C3)[nH]c2nc(-c3ccccc3)nn12` [1-107], the “FABP4 TdF Kd” value is on record as “B (0.5 ≦ B < 0.001 μM)”.

Take `O=C(NCC1(CO)COC1)c1c(Cl)cccc1OCc1cc(=O)n2nc(-c3ccccc3)nc2[nH]1` [47-34, 2-chloro-N-((3-(hydroxymethyl)oxetan-3-yl)methyl)-6-((7-oxo-2-phenyl-4,7-dihydro-[1,2,4]triazolo[1,5-a]pyrimidin-5-yl)methoxy)benzamide]: the “FABP4 TdF Kd” value is “B (0.5 ≦ B < 0.001 μM)”. On to `CN(C)c1cccc(OCc2cc(=O)n3nc(-c4ccccc4)nc3[nH]2)c1` [1-28], for which the Kd was > 500 nM.

`Cc1ccccc1C1(NC(=O)C2(OCc3cc(=O)n4nc(-c5ccccc5)nc4[nH]3)CCCCC2)CC1` [48-50]: the “FABP4 TdF Kd” value is reported as “B (0.5 ≦ B < 0.001 μM)”. `O=c1cc(COc2cccc(C(F)(F)F)c2)[nH]c2nc(-c3ccccc3)nn12` [1-59]: the Kd is > 500 nM. For the molecule `CN(Cc1cc(=O)n2nc(-c3ccccc3)nc2[nH]1)c1cccnc1Br` [1-51], the Kd is > 500 nM.

Regarding `Cn1cc2cccc(NCc3cc(=O)n4nc(-c5ccccc5)nc4[nH]3)c2n1` [1-105], the Kd was > 500 nM. As for `Nc1c(Cl)cccc1OCc1cc(=O)n2nc(-c3ccccc3)nc2[nH]1` [1-136], the “FABP4 TdF Kd” value is given as “B (0.5 ≦ B < 0.001 μM)”.

As for `O=c1cc(CN2CCCC2Cc2ccccn2)[nH]c2nc(-c3ccccc3)nn12` (centres unmarked) [1-139], the Kd was > 500 nM. `CN(CCc1ccccc1)C(=O)C1(OCc2cc(=O)n3nc(-c4ccccc4)nc3[nH]2)CCCCC1` [48-37]: the “FABP4 TdF Kd” value was “B (0.5 ≦ B < 0.001 μM)”. With `O=c1cc(COC2CCNCC2)[nH]c2nc(-c3ccccc3)nn12` [1-42], the Kd was > 500 nM. For the molecule `COc1ccccc1C1(CNC(=O)c2ccccc2OCc2[nH]c3nc(-c4ccccc4)nn3c(=O)c2Cl)CC1` [24-18], the Kd was ≤ 1 nM. Regarding `O=c1cc(CN2CCCC2Cc2cccnc2)[nH]c2nc(-c3ccccc3)nn12` (centres unmarked) [1-112], the Kd was > 500 nM.

In the case of `CCc1ccc(NCc2cc(=O)n3nc(C4CC4)nc3[nH]2)cc1` [5-9], the Kd is > 500 nM. Consider `CC(C)(C)c1ccc(OCc2cc(=O)n3nc(-c4ccccc4)nc3[nH]2)c(Cl)c1` [1-71], for which the Kd is > 500 nM. The same measure, in the same setting: in the case of `COc1ccccc1C1(NC(=O)C2(OCc3cc(=O)n4nc(-c5ccccc5)nc4[nH]3)CCCCC2)CC1` [48-13, N-(1-(2-methoxyphenyl)cyclopropyl)-1-((7-oxo-2-phenyl-4,7-dihydro-[1,2,4]triazolo[1,5-a]pyrimidin-5-yl)methoxy)cyclohexanecarboxamide] it was ≤ 1 nM. `Cc1ccc2ccccc2c1OCc1cc(=O)n2nc(-c3ccccc3)nc2[nH]1` [1-27]: the “FABP4 TdF Kd” value is listed as “B (0.5 ≦ B < 0.001 μM)”. Take `O=c1cc(COc2cccc3c2CCCC3)[nH]c2nc(-c3ccccc3)nn12` [1-10]: the “FABP4 TdF Kd” value was “B (0.5 ≦ B < 0.001 μM)”. Take `O=c1cc(COC2CCCCC2)[nH]c2nc(-c3ccccc3)nn12` [1-21]: the “FABP4 TdF Kd” value is reported as “B (0.5 ≦ B < 0.001 μM)”. As for `O=c1cc(COc2ccc(Br)c(Cl)c2)[nH]c2nc(-c3ccccc3)nn12` [1-8], the dissociation constant (Kd) is > 500 nM. With `O=C(NCC1(c2ccccc2Cl)CC1)c1ccccc1OCc1[nH]c2nc(-c3ccccc3)nn2c(=O)c1Cl` [24-8], the “FABP4 TdF Kd” value is “B (0.5 ≦ B < 0.001 μM)”. Same read-out and setting: as for `O=c1cc(COc2cc(Cl)cc(Cl)c2)[nH]c2nc(-c3ccccc3)nn12` [1-86], the entry is “B (0.5 ≦ B < 0.001 μM)”; as for `Cc1c(Cl)cccc1SCc1cc(=O)n2nc(-c3ccccc3)nc2[nH]1` [16-2], “B (0.5 ≦ B < 0.001 μM)”. The same measure, in the same setting: in the case of `Cc1ccccc1C(C)Cc1cc(=O)n2nc(-c3ccccc3)nc2[nH]1` (centres unmarked) [35-5] it was “B (0.5 ≦ B < 0.001 μM)”. Take `O=C(NCC1(CO)CCCC1)C1(OCc2cc(=O)n3nc(-c4ccccc4)nc3[nH]2)CCCCC1` [48-15, N-((1-(hydroxymethyl)cyclopentyl)methyl)-1-((7-oxo-2-phenyl-4,7-dihydro-[1,2,4]triazolo[1,5-a]pyrimidin-5-yl)methoxy)cyclohexanecarboxamide]: the dissociation constant Kd is ≤ 1 nM. For the molecule `O=c1cc(CN2CC[S+]([O-])CC2)[nH]c2nc(-c3ccccc3)nn12` [1-77], the Kd was > 500 nM. `CN(C(=O)C1(OCc2cc(=O)n3nc(-c4ccccc4)nc3[nH]2)CCCCC1)C1CCCCC1` [48-27]: the “FABP4 TdF Kd” value was “B (0.5 ≦ B < 0.001 μM)”. `COc1ccc(Cl)cc1NCc1cc(=O)n2nc(C(F)(F)F)nc2[nH]1` [5-6]: the Kd is > 500 nM.

For the molecule `CC(C)c1ccc(NCc2cc(=O)n3nc(-c4ccccc4)nc3[nH]2)cc1` [6-1], the Kd was > 500 nM.

For the molecule `Cc1csc(-c2ccc(OCc3cc(=O)n4nc(-c5ccccc5)nc4[nH]3)cc2)n1` [1-44], the dissociation constant (Kd) was > 500 nM. In the case of `O=C(NCC1(CO)CCC1)C1(OCc2[nH]c3nc(-c4ccccc4)nn3c(=O)c2Cl)CCCCC1` [50-6], the “FABP4 TdF Kd” value is “B (0.5 ≦ B < 0.001 μM)”. Regarding `O=c1cc(COc2ccc(Br)cc2)[nH]c2nc(-c3ccccc3)nn12` [1-61], the dissociation constant Kd is > 500 nM.

By Kd is commonly meant the free concentration of one partner at which half of the binding sites on the other are occupied at equilibrium, for simple one-to-one binding.
